Laboratory results from the supplement of paper PMC10307832.

Legend:
Test in all cases: relative viability (nuclei count vs DMSO), 5 days (fraction); higher = more cells survive
[1] = compound: Cn1c(Nc2ccc(C(F)(F)F)cc2)nc2cc(Oc3ccnc(-c4ncc(C(F)(F)F)[nH]4)c3)ccc21 [RAF265] + CS(=O)(=O)CCNCc1ccc(-c2ccc3ncnc(Nc4ccc(OCc5cccc(F)c5)c(Cl)c4)c3c2)o1 [Lapatinib] (partner 2 µM)
Summary of the method: (§1)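 Each reported value is a median over duplicate plates. It expresses relative viability: treated-well nuclei count divided by vehicle-well nuclei count. Lung cancer cell lines in 1536-well plates were dosed by pin tool a day after seeding, alone with one drug or with a fixed anchor-drug dose plus five library-drug doses (not always all listed) in √10 steps, and nuclei were counted after 5 days.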

[2] = compound: C1=CC=C2C(=C1)C=CC(=C2SSC3=C(C=CC4=CC=CC=C43)O)O [IPA-3] + Nc1ncn([C@H]2C[C@H](O)[C@@H](CO)O2)c(=O)n1 [Decitabine] (partner 2 µM)
Summary of the method: as §1

[3] = compound: Cc1ccc(-n2nc(C(C)(C)C)cc2NC(=O)Nc2ccc(OCCN3CCOCC3)c3ccccc23)cc1 [Doramapimod] + Cc1nc(NC(=O)N2CCC[C@H]2C(N)=O)sc1-c1ccnc(C(C)(C)C(F)(F)F)c1 [Alpelisib] (partner 2 µM)
Summary of the method: as §1

[4] = compound: C1=CC=C2C(=C1)C=CC(=C2SSC3=C(C=CC4=CC=CC=C43)O)O [IPA-3] + N=C(N)NC(=N)NCCc1ccccc1 [Phenformin] (partner 250 µM)
Summary of the method: as §1

Cell Line	relative viability ([1]; first compound 0.01 µM)	relative viability ([1]; first compound 0.03162 µM)	relative viability ([1]; first compound 0.1 µM)	relative viability ([1]; first compound 0.3162 µM)	relative viability ([1]; first compound 1 µM)	relative viability ([2]; first compound 0.2 µM)	relative viability ([2]; first compound 0.6325 µM)	relative viability ([2]; first compound 2 µM)	relative viability ([2]; first compound 6.325 µM)	relative viability ([2]; first compound 20 µM)	relative viability ([3]; first compound 0.02 µM)	relative viability ([3]; first compound 0.06325 µM)	relative viability ([3]; first compound 0.2 µM)	relative viability ([3]; first compound 0.6325 µM)	relative viability ([3]; first compound 2 µM)	relative viability ([4]; first compound 0.2 µM)	relative viability ([4]; first compound 0.6325 µM)	relative viability ([4]; first compound 2 µM)	relative viability ([4]; first compound 6.325 µM)	relative viability ([4]; first compound 20 µM)
NCI-H727	0.915	0.736	0.963	1.1	0.371	0.783	0.916	0.71	0.867	0.997	0.5	0.587	0.598	0.675	0.528	0.591	0.556	0.641	0.498	0.504
HARA	0.889	0.752	0.633	0.493	0.421	0.474	0.517	0.544	0.578	0.621	0.807	0.762	0.742	0.846	0.598	0.653	0.427	0.432	0.442	0.564
NCI-H2228	1.25	0.859	1.24	0.416	0.43						0.911	0.518	0.619	0.753	0.649	0.556	0.31	0.336	0.377	0.284
LCLC-97TM1	1.12	1.05	0.443	0.856	0.219	0.242	0.216	0.211	0.196	0.235	0.205	0.221	0.275	0.266	0.212	0.449	0.447	0.407	0.315	0.46
LC-2-ad	0.906	1.03	0.813	0.654	0.208	0.788	0.822	0.82	0.84	0.788	0.943	0.995	0.884	0.888	0.835	0.605	0.566	0.556	0.595	0.666
SK-LU-1	0.685	0.669	0.669	0.61	0.34	0.708	0.497	0.658	0.689	0.651	0.901	0.925	1.14	1.19	0.866	0.775	0.54	0.499	0.509	0.588
EKVX	0.189	0.199	0.228	0.153	0.187	0.342	0.396	0.26	0.297	0.332	0.826	0.755	0.773	1	0.833	0.267	0.235	0.238	0.235	0.266
HCC-827	0.186	0.197	0.196		0.147	0.359	0.34	0.33	0.312	0.327	0.931	1.01	0.97	1.01	0.612	0.383	0.379	0.396	0.441	0.457
NCI-H650	0.959	0.849	0.922	0.602	0.328	0.297	0.33	0.292	0.294	0.348	1.16	1.17	1.23	1.34	1.23	0.492	0.511	0.457	0.463	0.451
CAL-12T	0.68	0.653	0.825	0.598	0.449						1.1	1.05	1.21	1.41	1.09	0.763	0.512	0.529	0.529	0.694
NCI-H1648						0.529	0.465	0.4	0.59	0.525										
NCI-H522						0.703	0.642	0.534	0.689	0.765						0.648	0.657	0.582	0.697	0.76
IA-LM	0.652	0.578	0.759	0.653	0.52						0.658	0.728	0.693	0.73	0.669					
EPLC-272H	0.976	0.707	0.655	0.855	0.343	0.406	0.397	0.325	0.38	0.397	0.924	0.918	0.946	1.04	0.811	0.306	0.27	0.346	0.405	0.397
A-427	1.06	0.949	1.06	1.11	0.713	0.571	0.576	0.547	0.544	0.63	1.07	1.1	1.15		1.08	0.395	0.295	0.288	0.253	0.447
NCI-H647	1.19	0.937	0.828	0.711	0.809	0.502	0.396	0.397	0.206	0.134	1.26	1.15	1.14	1.12	1.03	0.8	0.482	0.48	0.371	0.107
NCI-H1975	0.809	0.791	0.618	0.469	0.412	0.472	0.368	0.357	0.398	0.356	0.756	0.674	0.69	0.77	0.676	0.43	0.385	0.43	0.429	0.381
NCI-H358	0.491	0.524	0.336	0.434	0.341	0.229	0.199	0.196	0.2	0.108	0.885	0.653	0.768	0.918	0.799	0.433	0.355	0.306	0.359	0.278
